The IC50 is the concentration at which inhibition is half-maximal. The low end stands for inhibition by little substance, the high end for a need for much substance.

From paper PMC4597882 (Investigational new drugs, 2009) come the findings set out here.

In this assay the target is human TopoII (TopoIIα) (Homo sapiens, UniProt P11388). The assay is described as follows: kinetoplast DNA decatenation assay. In kind it is biochemical.
human TopoII (TopoIIα), sequence (P11388 whole entry): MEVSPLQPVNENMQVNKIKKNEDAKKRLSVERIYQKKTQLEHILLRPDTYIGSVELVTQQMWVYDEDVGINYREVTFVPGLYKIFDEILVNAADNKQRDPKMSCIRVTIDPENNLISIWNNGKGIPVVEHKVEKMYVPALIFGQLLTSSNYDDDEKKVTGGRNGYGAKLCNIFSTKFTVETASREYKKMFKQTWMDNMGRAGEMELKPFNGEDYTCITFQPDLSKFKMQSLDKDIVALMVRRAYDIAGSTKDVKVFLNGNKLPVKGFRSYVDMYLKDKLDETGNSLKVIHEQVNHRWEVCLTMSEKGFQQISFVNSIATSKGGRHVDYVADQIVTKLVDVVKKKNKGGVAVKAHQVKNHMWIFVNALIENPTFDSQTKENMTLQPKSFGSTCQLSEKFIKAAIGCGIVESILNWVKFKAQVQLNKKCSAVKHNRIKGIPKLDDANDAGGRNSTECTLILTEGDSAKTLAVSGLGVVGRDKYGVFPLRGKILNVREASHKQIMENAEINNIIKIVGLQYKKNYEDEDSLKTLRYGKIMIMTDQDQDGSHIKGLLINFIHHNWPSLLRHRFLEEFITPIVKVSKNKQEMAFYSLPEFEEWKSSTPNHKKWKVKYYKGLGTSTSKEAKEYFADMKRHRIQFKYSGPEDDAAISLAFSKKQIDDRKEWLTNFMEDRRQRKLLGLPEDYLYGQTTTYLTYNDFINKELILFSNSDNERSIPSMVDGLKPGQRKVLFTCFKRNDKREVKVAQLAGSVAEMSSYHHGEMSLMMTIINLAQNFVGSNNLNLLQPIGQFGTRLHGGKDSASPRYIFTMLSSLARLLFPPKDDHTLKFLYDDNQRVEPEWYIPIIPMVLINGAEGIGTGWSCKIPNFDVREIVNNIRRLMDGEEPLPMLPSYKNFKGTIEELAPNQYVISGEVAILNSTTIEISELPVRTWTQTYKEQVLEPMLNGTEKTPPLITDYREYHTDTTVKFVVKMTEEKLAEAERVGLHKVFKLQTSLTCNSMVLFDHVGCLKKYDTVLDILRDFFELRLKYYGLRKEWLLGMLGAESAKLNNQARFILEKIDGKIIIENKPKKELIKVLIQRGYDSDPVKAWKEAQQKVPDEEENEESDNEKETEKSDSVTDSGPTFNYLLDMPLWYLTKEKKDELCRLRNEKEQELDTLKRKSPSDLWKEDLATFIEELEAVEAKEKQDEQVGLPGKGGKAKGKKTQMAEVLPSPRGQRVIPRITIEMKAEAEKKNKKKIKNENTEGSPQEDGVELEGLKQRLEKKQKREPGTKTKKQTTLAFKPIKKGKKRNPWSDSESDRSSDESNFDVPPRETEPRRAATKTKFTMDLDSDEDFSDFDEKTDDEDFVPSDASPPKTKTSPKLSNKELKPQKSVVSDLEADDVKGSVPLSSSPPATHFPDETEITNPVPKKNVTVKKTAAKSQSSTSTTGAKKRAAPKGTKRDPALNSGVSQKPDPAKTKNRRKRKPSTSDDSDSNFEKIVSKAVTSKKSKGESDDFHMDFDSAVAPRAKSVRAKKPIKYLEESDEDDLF

Take `CC(=O)O[C@@H]1[C@@H](C)O[C@@H](c2ccc3c(c2O)[C@@H](O)[C@]24O[C@@]2(C3=O)[C@@]2(O)C(=O)C=C(C)C[C@@]2(O)C[C@@H]4O)C[C@H]1OC(=O)/C=C/C=C/C=C/C=C/C(=O)Nc1c(O)c2ccc(O)c(Cl)c2oc1=O` [SD8, Simocyclinone D8]: the IC50 is around 80 µM.
